Measured values: PMC6798786 (Brain Communications, 2019)
“Also recorded” adds a separate entry of the source. Where two headings read alike, the source gives them in different places.

Tests used:
scn1lab mutant zebrafish [1] = assay: local field potential (LFP) electrophysiology, electrographic seizure events; assay type: in vivo, Danio rerio; conditions: for effect on electrographic seizure activity (LFP): 100 µM, 10 min recording epoch
Method: Using a glass micro-electrode positioned under an upright microscope, local field potential (LFP) recordings were obtained from forebrain or optic tectum structures, as described ([Baraban et al., 2005]). Agarose-embedded LFP recording sessions (10 min in duration) were obtained using Axoclamp software (Molecular Devices; Sunnyvale, CA, USA) and sampled at 1 kHz. Epileptiform events were identified post hoc. These were classified as multi-spike or poly-spike upward or downward membrane deflections greater than 3× baseline noise level and 150–250 ms in duration (interictal-like) or greater than 5× baseline noise, multi-spike and >500 ms in duration (ictal-like); both events were counted using threshold detection settings in Clampfit (Molecular Devices; Sunnyvale, CA, USA). Agarose-embedded larvae were continuously monitored for blood flow and heart rate using an Axiocam digital camera at video frame rate.
Monitoring electrographic brain activity to confirm seizure suppression is an essential assay to eliminate false positives from behavioural testing ([Griffin et al., 2018]). By placing a micro-electrode into a visually identified brain region of an agar-immobilized zebrafish larval, stable LFP recordings can be monitored for several hours ([Baraban, 2013]). At 5 days post-fertilization, LFP recordings of scn1Lab zebrafish larvae show an average of 250 abnormal electrographic seizure events during a 10 min recording epoch.

scn1lab mutant zebrafish [2] = assay: locomotion (mean swim velocity) seizure-like behaviour assay in scn1lab mutant zebrafish larvae; assay type: in vivo, Danio rerio; conditions: for effect on seizure-like swim behaviour, initial library screen: 100 µM or 250 µM, UCSF-synthesized compound; for effect on seizure-like swim behaviour, retest of independently synthesized compound: 10, 50, 100 and 250 µM; for effect on seizure-like swim behaviour, retest of independently synthesized compound / effect on seizure-like swim behaviour, commercially available compounds: 30 and 90 min exposure; for change in vivo at 100 µM / change in vivo at 250 µM: Danio rerio; for effect on seizure-like swim behaviour, commercially available compounds: three concentrations
Method: (§1) For locomotion studies, zebrafish larvae (5 days post-fertilization) were placed into a single well of a clear flat-bottomed 96-well microplate containing embryo media. Sex determination is not possible at this stage of development. All drug screening experiments were conducted in an unbiased manner by investigators blinded to the test compounds and all files coded for post hoc analysis. The 96-well plate containing larvae was then placed inside a DanioVision box where they were allowed to acclimate (20 min; room temperature). EthoVision XT software (DanioVision, Noldus Information Technology) was used to obtain locomotion plots (10 min in duration). Seizure scoring was performed, as described ([Baraban et al., 2005]). All locomotion plots were analysed for distance travelled (in millimetres) and mean velocity (in millimetres per second). After 90 min of drug exposure larvae were examined for toxic side-effects. Compounds that decreased or stopped the larva heartbeat, or reduced or eliminated the escape response when touched, were considered toxic.
For behaviour analysis, the threshold for a change in mean swim velocity ≥40% is considered significant (>1.5× SD of 250 control treated scn1lab). Unless otherwise indicated, all data in this manuscript are presented as the mean ± standard error of the mean. […] Statistically significant differences are indicated with asterisks (*P < 0.05; **P < 0.01; ***P < 0.001). […]

human H1 = human H1 (Homo sapiens, UniProt P35367); assay: radioligand binding (NIMH PDSP)
human H1, sequence (P35367 whole entry): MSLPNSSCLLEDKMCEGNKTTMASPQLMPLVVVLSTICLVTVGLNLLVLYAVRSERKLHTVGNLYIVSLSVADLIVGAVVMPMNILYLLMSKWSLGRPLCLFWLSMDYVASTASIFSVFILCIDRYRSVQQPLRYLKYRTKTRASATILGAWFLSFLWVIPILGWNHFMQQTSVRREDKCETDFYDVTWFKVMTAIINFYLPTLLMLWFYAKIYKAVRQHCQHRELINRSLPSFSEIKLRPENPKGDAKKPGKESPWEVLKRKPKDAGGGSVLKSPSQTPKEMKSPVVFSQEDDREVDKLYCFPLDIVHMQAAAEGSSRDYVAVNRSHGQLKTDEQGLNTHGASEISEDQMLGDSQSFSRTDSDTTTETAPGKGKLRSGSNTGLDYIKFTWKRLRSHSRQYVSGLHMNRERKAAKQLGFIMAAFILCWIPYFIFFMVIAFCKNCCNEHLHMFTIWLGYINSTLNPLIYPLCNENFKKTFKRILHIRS
Method: (§2) All in vitro binding assay and Ki data studies were performed by the US National Institute of Mental Health Psychoactive Drug Screening Program (NIMH PDSP). For these studies, drugs were screened against recombinant, stably expressed human 5-HT2AR, 5-HT2BR, 5-HT2CR and H1, as described at https://pdspdb.unc.edu/pdspWeb/ ([Besnard et al., 2012]).

human 5-HT2BR [3] = target: T1, human 5-HT2BR (Homo sapiens, UniProt P41595); assay: radioligand binding (NIMH PDSP)
T1 sequence (P41595 whole entry): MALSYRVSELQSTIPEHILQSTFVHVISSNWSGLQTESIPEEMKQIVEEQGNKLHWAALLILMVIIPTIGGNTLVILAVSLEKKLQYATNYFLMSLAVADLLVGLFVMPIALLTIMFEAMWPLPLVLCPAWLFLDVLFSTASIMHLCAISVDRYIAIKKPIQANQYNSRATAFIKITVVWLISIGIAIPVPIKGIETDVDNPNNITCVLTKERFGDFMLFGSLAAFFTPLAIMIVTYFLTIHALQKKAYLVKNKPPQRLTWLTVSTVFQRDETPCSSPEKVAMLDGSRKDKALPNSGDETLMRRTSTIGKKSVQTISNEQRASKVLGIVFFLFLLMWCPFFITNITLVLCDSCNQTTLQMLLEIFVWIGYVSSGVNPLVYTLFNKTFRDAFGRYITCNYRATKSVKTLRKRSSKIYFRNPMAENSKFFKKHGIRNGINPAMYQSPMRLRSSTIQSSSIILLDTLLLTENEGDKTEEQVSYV
Method: as §2

human 5-HT2AR = human 5-HT2AR (Homo sapiens, UniProt P28223); conditions: read-out: 5-HT2AR (nM), Table S3, cited from earlier work
human 5-HT2AR, sequence (P28223 whole entry): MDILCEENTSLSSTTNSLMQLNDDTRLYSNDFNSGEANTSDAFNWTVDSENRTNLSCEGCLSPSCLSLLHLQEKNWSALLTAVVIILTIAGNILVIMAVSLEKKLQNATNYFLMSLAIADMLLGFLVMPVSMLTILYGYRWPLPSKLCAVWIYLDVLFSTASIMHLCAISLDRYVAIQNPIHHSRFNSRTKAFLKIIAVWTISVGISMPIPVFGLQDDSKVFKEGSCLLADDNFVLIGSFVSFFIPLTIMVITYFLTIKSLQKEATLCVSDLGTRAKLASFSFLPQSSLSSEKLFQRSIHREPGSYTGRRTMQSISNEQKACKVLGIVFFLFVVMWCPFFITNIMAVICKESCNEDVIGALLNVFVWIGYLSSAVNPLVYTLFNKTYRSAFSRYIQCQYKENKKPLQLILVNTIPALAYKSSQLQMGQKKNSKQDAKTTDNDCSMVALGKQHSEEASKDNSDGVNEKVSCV

human 5-HT2CR = target: T2, human 5-HT2CR (Homo sapiens, UniProt P28335)
T2 sequence (P28335 33-458): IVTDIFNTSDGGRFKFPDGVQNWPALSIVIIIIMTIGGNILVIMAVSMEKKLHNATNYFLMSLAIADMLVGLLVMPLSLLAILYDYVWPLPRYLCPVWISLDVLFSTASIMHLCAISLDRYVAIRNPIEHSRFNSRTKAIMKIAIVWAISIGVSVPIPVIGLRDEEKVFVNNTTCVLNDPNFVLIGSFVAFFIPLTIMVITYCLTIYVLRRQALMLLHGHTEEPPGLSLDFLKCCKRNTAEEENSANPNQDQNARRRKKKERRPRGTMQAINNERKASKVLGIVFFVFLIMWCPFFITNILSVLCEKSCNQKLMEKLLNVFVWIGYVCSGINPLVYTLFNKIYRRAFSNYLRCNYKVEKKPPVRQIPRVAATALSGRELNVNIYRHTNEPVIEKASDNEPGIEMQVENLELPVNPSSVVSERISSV

[4] = test system: scn1lab mutant zebrafish larvae; assay: toxicity check of larvae after 90 min drug exposure (heartbeat, escape response); assay type: in vivo, Danio rerio; conditions: 90 min exposure
Method: as §1, with “Seizure scoring was performed, as described ([Baraban et al., 2005]).” left out

human 5-HT2BR [5] = target: T1, human 5-HT2BR; conditions: commercially available compounds known to bind 5-HT2BR; ref Roth et al., 2000; read-out: 5-HT2BR (nM), Table S3; cited from earlier work
human 5-HT2R = assay: radioligand binding (NIMH PDSP), any 5-HT2R subtype; conditions: 5-HT2AR, 5-HT2BR, 5-HT2CR
Method: as §2
Additionally, 5-HT2R modulating compounds exert antiepileptic activity in both preclinical ([Sourbron et al., 2016]; [Griffin et al., 2017]) and clinical studies ([Griffin et al., 2017]; [Schoonjans et al., 2017]; [Kauppila et al., 2018]). […] […].

[6] = read-out: % change in velocity, individual larva 1 (heat map)
[7] = read-out: % change in velocity, individual larva 2 (heat map)
[8] = read-out: % change in velocity, individual larva 3 (heat map)
[9] = read-out: % change in velocity, individual larva 4 (heat map)
[10] = read-out: % change in velocity, individual larva 5 (heat map)
[11] = read-out: % change in velocity, individual larva 6 (heat map)
[12] = read-out: mean velocity change from six fish, Trial 1
[13] = read-out: mean velocity change from six fish, Trial 2
[14] = commercially available compounds known to bind 5-HT2BR, ref Roth et al., 2000
[15] = read-out: 5-HT2CR (nM), Table S3; commercially available compounds known to bind 5-HT2BR; ref Roth et al., 2000; cited from earlier work
[16] = commercially available compounds known to bind 5-HT2BR; ref Roth et al., 2000; read-out: 5-HT2CR (nM), Table S3; cited from earlier work

Row | SMILES | change in vivo at 100 µM (scn1lab mutant zebrafish [2]; [6]) [%] | change in vivo at 250 µM (scn1lab mutant zebrafish [2]; [6]) [%] | change in vivo at 100 µM (scn1lab mutant zebrafish [2]; [7]) [%] | change in vivo at 250 µM (scn1lab mutant zebrafish [2]; [7]) [%] | change in vivo at 100 µM (scn1lab mutant zebrafish [2]; [8]) [%] | change in vivo at 250 µM (scn1lab mutant zebrafish [2]; [8]) [%] | change in vivo at 100 µM (scn1lab mutant zebrafish [2]; [9]) [%] | change in vivo at 250 µM (scn1lab mutant zebrafish [2]; [9]) [%] | change in vivo at 100 µM (scn1lab mutant zebrafish [2]; [10]) [%] | change in vivo at 250 µM (scn1lab mutant zebrafish [2]; [10]) [%] | change in vivo at 100 µM (scn1lab mutant zebrafish [2]; [11]) [%] | change in vivo at 250 µM (scn1lab mutant zebrafish [2]; [11]) [%] | change in vivo at 100 µM (scn1lab mutant zebrafish [2]; [12]) [%] | change in vivo at 250 µM (scn1lab mutant zebrafish [2]; [12]) [%] | change in vivo at 100 µM (scn1lab mutant zebrafish [2]; [13]) [%] | change in vivo at 250 µM (scn1lab mutant zebrafish [2]; [13]) [%] | Ki (human 5-HT2AR; [14]) [nM] | Ki (human 5-HT2BR [5]) [nM] | Ki (human 5-HT2CR; [16]) [nM] | effect on seizure-like swim behaviour, commercially available compounds (scn1lab mutant zebrafish [2]) | further results
1 | c1ccc2c(c1)nc(CN1CCCC1)n2CC1CCCC1 [Compound 20] | 17.3 | -62.7 | -4.1 | -80.4 | -27.1 | -65.9 | -14.1 | -100 | -25.2 | -60.9 | -48.1 | -9.7 | -15.6 | -66.1 | -15.6 | -66.1 | – | – | – | – | effect on electrographic seizure activity (LFP) (scn1lab mutant zebrafish [1]): significant suppression of electrographic seizure activity; effect on seizure-like swim behaviour, initial library screen (scn1lab mutant zebrafish [2]): effective in suppressing; effect on seizure-like swim behaviour, retest of independently synthesized compound (scn1lab mutant zebrafish [2]): reduced the high-velocity seizure-like swim behaviour; Ki (human H1; read-out: Ki H1): 161 nM; Ki (human 5-HT2BR [3]; read-out: Ki 5-HT2BR): 772 nM
2 | c1cnc(N2CCN(Cc3ccc4c(c3)OCO4)CC2)nc1 [piribedil, Piribedil, reference compound] | – | – | – | – | – | – | – | – | – | – | – | – | – | – | – | – | > 10000 | – | – | – | Ki (human 5-HT2CR; [15]): > 10000 nM; toxicity at 100 µM ([4]; 100 µM): toxicity; toxicity at 250 µM ([4]; 250 µM): toxicity
3 | c1ccc2c(c1)nc(CN1CCCC1)n2CC1CCCCC1 [Compound 4] | -85.7 | -93.5 | -30.6 | -100 | -85.6 | -100 | -68.3 | -67.4 | -79.4 | -83.7 | 146 | -100 | -41.7 | -93.4 | -44.8 | -100 | – | – | – | – | effect on electrographic seizure activity (LFP) (scn1lab mutant zebrafish [1]): significant suppression of electrographic seizure activity; effect on seizure-like swim behaviour, initial library screen (scn1lab mutant zebrafish [2]): effective in suppressing; effect on seizure-like swim behaviour, retest of independently synthesized compound (scn1lab mutant zebrafish [2]): reduced the high-velocity seizure-like swim behaviour; Ki (human H1): 153 nM; Ki (human 5-HT2BR [3]): 612 nM
4 | FC(F)(F)c1ccc(Cn2c(CN3CCCC3)nc3ccccc32)cc1 [Compound 6] | -34.5 | -100 | 38.1 | -91.9 | -51.3 | -100 | 10 | -100 | -75.4 | -79.3 | -79.2 | -92.7 | -40 | -94.7 | -76.2 | -90.5 | – | – | – | – | effect on electrographic seizure activity (LFP) (scn1lab mutant zebrafish [1]): significant suppression of electrographic seizure activity; effect on seizure-like swim behaviour, initial library screen (scn1lab mutant zebrafish [2]): effective in suppressing; effect on seizure-like swim behaviour, retest of independently synthesized compound (scn1lab mutant zebrafish [2]): reduced the high-velocity seizure-like swim behaviour; Ki (human H1; read-out: Ki H1): 16 nM; Ki (human 5-HT2BR [3]; read-out: Ki 5-HT2BR): 285 nM
5 | C[C@H](N)Cn1ccc2cc(F)c(Cl)cc21 [Ro 60-0175] | – | – | – | – | – | – | – | – | – | – | – | – | – | – | – | – | – | 4.3 | 9.1 | borderline effective | Ki (human 5-HT2AR): 37.2 nM
6 | CC(N)Cc1cccc(C(F)(F)F)c1.Cl (single isomer, unassigned; (+)) [norfenfluramine, (+)-Norfenfluramine hydrochloride, reference compound] | – | – | – | – | – | – | – | – | – | – | – | – | – | – | – | – | – | 18 | 306 | suppressed convulsive swim behaviours in a concentration-dependent manner; also recorded: restore the swimming behaviour or scn1lab mutant larvae to wild-type levels | Ki (human 5-HT2AR): 194 nM; larvae with reduced spontaneous seizure events (LFP) (scn1lab mutant zebrafish [1]; n = 8): 5 out of 8
7 | Clc1cccc(COc2cncc(N3CCNCC3)n2)c1 [CP-809,101] | – | – | – | – | – | – | – | – | – | – | – | – | – | – | – | – | 1.6 | 6 | 64 | biphasic response | –
8 | c1cn(CC2CCCCC2)c(CN2CCCC2)n1 [Compound 21] | 17.5 | 52.2 | -5.2 | -11.5 | 11.1 | 80.9 | 8.5 | -44.9 | 13.2 | 37.8 | 24 | -14.2 | 12.5 | 6.5 | 12.5 | 6.5 | – | – | – | – | binding to any human 5-HT2R (human 5-HT2R): no significant binding
9 | Br.CN(C)C1CCc2cc(O)c(O)cc2C1 (centres unmarked) [TL-99] | – | – | – | – | – | – | – | – | – | – | – | – | – | – | – | – | 2340 | 2040 | 2290 | failed to elicit any behavioural effect | –
10 | C=CCN1C[C@H](C(=O)N(CCCN(C)C)C(=O)NCC)C[C@@H]2c3cccc4[nH]cc(c34)C[C@H]21 [cabergoline, Cabergoline] | – | – | – | – | – | – | – | – | – | – | – | – | – | – | – | – | 6.17 | – | – | – | Ki (human 5-HT2CR; [15]): 692 nM; effect on convulsive swim behaviour at 250 µM (scn1lab mutant zebrafish [2]; 250 µM): significantly reduced convulsive swim behaviour
